The text below walks through data of US12005068B2, “Formulation including doxycycline hyclate and method for administering the same” (priority 2017, dated 2024).

What all share (format): in vivo
One assay deals with multiple sclerosis. Kind of assay: Example 5: human subject with multiple sclerosis, leg pain triggered by AVONEX injection. The conditions noted are these: patient history. From the text: The following in vivo study of a human subject diagnosed with multiple sclerosis.
A patient presented with excruciating pain in their quadriceps that extended down to their calves. The pain was triggered by the weekly injection of AVONEX (interferon beta-1a) the patient was taking in order to manage their multiple sclerosis. They could not sleep due to the pain.
The patient then began a new treatment course to alleviate the pain. This treatment is a novel formulation of topical doxycycline hyclate suspension at a concentration of 400 mg/g. Each dose was 4 ml per leg and 2 ml per arm/hands. They applied it to the affected areas when they were feeling the pain. They also applied it at work when they would get pains from handling complex machines such as nail guns.

Assay [1] deals with chemotherapy induced peripheral neuropathy. Kind of assay: Example 1: human subject with chemotherapy induced peripheral neuropathy, Treatment-Induced Neuropathy Assessment Scale and reported symptoms. Conditions: patient history before the disclosed treatment. From the text:
A patient complained of a tingling and burning sensation in their hands and feet that began shortly after they commenced chemotherapy. The patient had been previously diagnosed with primary peritoneal cervical cancer. While it was recommended that the patient undergo chemotherapy treatment for 18 weeks, the patient was unable to tolerate the side effects of the treatment after 11 weeks and ceased the treatment sessions. […] The patient experienced the same side effects again and sought help to alleviate their pain.
Upon physical examination by a practicing physician their gait was abnormal. Some of their symptoms included: • (a) The patient had poor coordination. In particular, when the patient would stop looking at their feet, they would lose all sense of proprioception (i.e., their sense of the relative position of the body and strength of effort being employed in movement) was lost. The patient thus used a cane as they had trouble with stability. • (b) The patient's sense of touch was poor. For example, the patient could not distinguish different textures as everything felt like silk to them. • (c) The patient's sense of temperature was also poor. […] • (d) There was an altered temperature sensation. They were hyper sensitized to slight changes in temperature. […] They could not write, hold a phone, pick up change, buckle themself in a seat, or dress themself. In the absence of a stimulus, the patient felt the tingling, burning sensations in their hands and feet. • (e) The patient's sensations would be exacerbated upon the introduction of a non-noxious stimulus.
Based on the above, the patient was diagnosed with chemotherapy induced peripheral neuropathy. […] Some of the attempted medications were PERCOSET, GABAPENTIN, TYLENOL, ADVIL, LIDOCAINE, and CAPSAICIN. Numerous other over-the-counter medications were tried. Other attempted treatments included acupuncture.
In an embodiment of the presently disclosed treatment, a formulation of topical doxycycline hyclate suspension at a concentration of 400 mg/g. The prescribed administration included applying the formulation to the patient's hands and feet 2-3 times daily as needed for the pain. Each dose was 2 ml per foot, per hand, and per leg. Over the course of at least 18 months, the patient used the formulation every day during the remainder of the patient's second regiment of chemotherapy. […] In particular, immediately after applying the topical doxycycline for the very first time, the patient found relief in the tingling, burning feeling in the hands and feet. […] They were able to pick up change.
Quantitatively, data was collected for at least 7 months on a “Treatment-Induced Neuropathy Assessment Scale” as shown in Table 1 below. The scale was proven in the scientific literature to be an effective tool to quantify change in symptoms presented by patients with peripheral neuropathy. The patient needed to assess their pain from a scale of 0 (non-existent) to 10 (unbearable pain). Throughout all the categories, the patient's pain went down. In some categories the pain was diminished altogether.

Another assay relates to osteoarthritis. As to the kind of experiment: Example 6: human subject with osteoarthritis in both knees. Conditions: patient history; side effects put them in a worse state. How it is done:
The following in vivo study of a human subject diagnosed with osteoarthritis.
A patient presented with osteoarthritis in both knees due to a previous trauma years ago in their life. Their knees are in a constant state of pain and inflammation. They also have arthritis in the toe joints and shoulder.
The patient then began a new treatment course to alleviate the pain. This treatment is a novel formulation of topical doxycycline hyclate suspension at a concentration of 400 mg/g. Each dose was 2 ml per knee. They applied it to the affected areas when they were feeling the pain. By the next day the patient feels minimal pain. They apply 1.5 ml of the topical doxycycline suspension daily for a week at night. […] undergoes this treatment once every 4-6 months.

A further assay relates to idiopathic neuropathy. Kind of assay: Example 7: human subject with idiopathic neuropathy. Conditions: patient statement. How it is done:
The following in vivo study of a human subject diagnosed with idiopathic neuropathy.
A patient presented with idiopathic ice-cold burning sensations on the lateral surface area of the right shin/calf. The pain began 6 years ago and has stayed constant.
The patient then began a new treatment course to alleviate the pain. This treatment is the presently disclosed novel formulation of topical doxycycline hyclate suspension at a concentration of 400 mg/g. Each dose was 4m1 to the affected right shin. They applied it topically to the affected areas when they were feeling the pain. They began applying it only once a day for 2 weeks before bed.

Assay [2] concerns osteoarthritis of the left knee. As to the kind of experiment: Example 2: human subject with osteoarthritis of the left knee. Conditions: patient history; once relieved pain for 3 months. From the text: The following in vivo study of a human subject diagnosed with osteoarthritis of the left knee.
A patient presented with complaints of left knee pain. The patient had been previously diagnosed with progressive osteoarthritis of the left knee. They had undergone two knee surgeries, but the pain came back within a few months. […] Their specialist said that the they were too young and too overweight for a full knee replacement surgery so they must rely on narcotic pain medications and hydrocortisone shots until they are a good candidate for the replacement surgery.
The patient then began the currently disclosed treatment course to alleviate the pain from their osteoarthritis. As already discussed, the currently disclosed treatment is a topical doxycycline hyclate suspension at a concentration of 400 mg/g. They applied it to the knee twice a day. Each dose was approximately 4 ml per knee spread topically over the knee. Preferably, an application covers the affected area with a thin layer of the suspension. One application was before bedtime and the other was in the morning before going to work. The patient has been using it every day for the past month.

Consider `CC(C)Cc1ccc(C(C)C(=O)O)cc1` (stereo not shown) [MOTRIN, ibuprogen], for which the “effect of previously taken medications on pain” value with multiple sclerosis is on record as “not as effective as they hoped”.

On to `CC(C)Cc1ccc(C(C)C(=O)O)cc1` (stereo not shown) [ADVIL, ibuprofen], for which, in assay [1], the “effect of previously attempted medications on the patient's symptoms” value (“effect … on the patient's symptoms” for short) is reported as “failed to address the patient's symptoms”. On the same count and under the same terms, as for `COc1cc(CNC(=O)CCCC/C=C/C(C)C)ccc1O` [CAPSAICIN], the entry is “failed to address the patient's symptoms”. For the compound `CC(=O)Nc1ccc(O)cc1` [TYLENOL, acetaminophen], the “effect of previously tried medications on pain” value in the assay on osteoarthritis is listed as “did not help manage the pain”. The “effect of previously taken medications on pain” value in the assay with multiple sclerosis is listed as “not as effective as they hoped”. Also, the “effect … on the patient's symptoms” value in assay [1] is reported as “failed to address the patient's symptoms”.

Take `CCN(CC)CC(=O)Nc1c(C)cccc1C` [LIDOCAINE]: the “effect … on the patient's symptoms” value in assay [1] is “failed to address the patient's symptoms”. Turning to `CC(C)Cc1ccc(C(C)C(=O)O)cc1` (stereo not shown) [Ibuprofen], the “effect of previous medications on pain” value in the assay on idiopathic neuropathy is given as “did not help”. Regarding `C[C@]12CCC(=O)C=C1CC[C@@H]1[C@@H]2[C@@H](O)C[C@@]2(C)[C@H]1CC[C@]2(O)C(=O)CO` [hydrocortisone], in assay [2], the “duration of pain relief after shots” value worked out at 3 weeks. For `NCC1(CC(=O)O)CCCCC1` [GABAPENTIN], the “effect … on the patient's symptoms” value in assay [1] is “failed to address the patient's symptoms”.
